Key:
[1] = tested on: triple-negative breast cancer cells (TNBC); experiment: Growth inhibition of TNBC cells; assay type: cell-based
Text: FIGS. 10A & 10B show effects of TK208 against cancer cells.
TNBC is difficult to be treated and currently there are no good drugs available in the market.
In addition, another tris-benzmaide compound TK208 was synthesized and tested against breast cancer and ovarian cancer cell lines (FIGS. 10-15). […] These compounds (e.g., TK41, TK208, TK308 (FIG. 21), TK309 (FIG. 22), TK314, TK315) are extremely potent compounds that inhibit tumor growth and kill breast and ovarian cancer cells and as such, they are superb therapeutic candidates for such diseases.

HMEC cells [2] = experiment: ER stress induction in HMEC cells; assay type: cell-based, human; conditions: normal HMEC cells
Text: The basal level of expression of endoplasmic reticulum stress and unfolded protein response correlates with TK41 activity (FIG. 28). Modulation of the level of these stress proteins affects the activity of TK41. Thus, the basal level of expression of endoplasmic reticulum stress and unfolded protein response proteins may serve as a biomarker to predict response to TK41. […] Without wishing to be bound by any particular theory, the mechanism of action of TK41 may operate comprise targeting either ER or TLX and inducing endoplasmic reticulum stress, subsequent apoptosis, and blocking autophagic fusion (FIG. 30).
ERX-41 induces endoplasmic reticulum stress in TNBC. To understand the mechanism of action of ERX-41 in TNBC, the inventors performed unbiased RNA sequencing studies in three TNBC (SUM-159, MDA-MB-231, and BT549) and normal HMEC cell lines (FIGS. 36A-C). […] Heatmaps show the induction of ER stress and UPR genes in these three TNBC cell lines (FIG. 36E). Evaluation of ER stress induction was then performed with ultrastructural studies using electron microscopy (EM) studies.

HMEC cells [3] = experiment: Live cell imaging with SYTOX Green, HMEC; assay type: cell-based, human
Text: FIGS. 34A-C: Dose response curve of ERX-41 in multiple TNBC. cell lines using WST-1 assays (FIG. 34A) and CellTiter-Glo assays (FIG. 34B). […] Quantification of the number of dead cells over time seen with live cell imaging in MDAMB-231 and HMEC cells is shown.
To evaluate the generalizability of the inventors' findings, they evaluated ERX-41 in a large number of TNBC and ERa-positive cell lines.

[4] = tested on: MDA-MB-231 TNBC xenografts; experiment: MDA-MB-231 TNBC xenografts; assay type: in vivo, mice; conditions: oral 10 mg/kg/day
Experimental: FIGS. 5A-5C show the effect of TK41 on triple negative breast cancer xenograft tumors. MDA-MB-231 (TNBC; n=10) xenografts were established in nude mice and treated with either vehicle (circle markers) or 10 mg/kg/day TK41 (square markers) administered as an oral gavage in Captisol®. Comparison of mice body weights is shown in bar graphs (FIG. 5A). Photographs of individual tumors at necropsy supports the effect of TK41 on TNBC. *p<0.05; **** p<0.001.
FIGS. 35A-P: ERX-41 is potent against TNBC in vivo. (FIG. 35A) Following establishment of subcutaneous MDA-MB-231 xenograft tumors (200 mm^3), 10 mg/kg single dose ERX-41 was administered either by oral or intraperitoneal route. The tumor was harvested 0, 0, 5, 1, 5, 3, 6 and 24 h after drug administration and the drug levels assayed by LC-MS/MS and graphed. (FIGS. 35B-E) Following establishment of MDA-MB-231 xenografts in mammary fat pad in vivo (100 mm^3 size), daily administration of 10 mg/kg ERX-41 or vehicle control (N=8 each group) was initiated. Tumor volumes were measured using digital calipers and graphed (FIG. 35B). Tumor weights (FIG. 35C), body weights (FIG. 35D) and extirpated tumors (FIG. 35E) at end of study are also shown. […] Tumor volumes were measured using digital calipers and graphed (FIG. 35F) along with tumor weights (FIG. 35G) and body weights (FIG. 35H). […]

primary TNBC tumors = experiment: Ex vivo patient derived explant (PDE) cultures of TNBC; assay type: cell-based, human
Experimental: FIGS. 38A-E: LIPA is a viable molecular target in TNBC. (FIG. 38A) Kaplan-Meier curves show the correlation between expression levels of LAL with survival outcomes using a TCGA dataset with numerical tabulation below. (FIGS. 38B-D) Following surgical extirpation, primary TNBC tumors were cultured ex vivo either with vehicle or 1 μM ERX-41, as shown by the schematic (FIG. 38B). The effect on proliferation index (ki67) (FIG. 38C) and apoptosis markers (cleaved caspase 3) (FIG. 38D) is graphed. Representative immunohistochemical images of the effect of ERX-41 on ki67, cleaved caspase 3 and UPR genes shown (FIG. 38E).
ERX-41 has activity on human TNBC tumors. To ascertain that ERX-41 would have activity against primary TNBC tumors, the inventors leveraged their prior significant experience with the ex vivo patient derived explant (PDE) cultures […]. The PDE cultures, maintains the native tissue architecture and better recapitulates the heterogeneity of human TNBC in a laboratory setting.

CC(C)COc1cc(C(=O)Nc2ccc(C(=O)N[C@H]3CC[C@H](C)CC3)cc2OCC(C)C)ccc1NC(=O)c1ccc([N+](=O)[O-])c(OCCO)c1 [TK41]
IC50 [1]: < 100 nM
induction of endoplasmic reticulum stress in HMEC (HMEC cells [2]): does not induce endoplasmic reticulum stress
induction of endoplasmic reticulum stress in HMEC (HMEC cells [2]; listed as ERX-41): unable to induce ER stress
cell death in HMEC (HMEC cells [3]): did not significantly induce cell death
growth of MDA-MB-231 xenografts [4]: significantly decreased the growth
mouse body weights [4]: no alterations in mouse body weights
apoptosis (cleaved caspase 3 staining) (primary TNBC tumors; 1 μM ex vivo): increased apoptosis
proliferation (ki67 staining) (primary TNBC tumors; 1 μM ex vivo): decreased proliferation
UPR pathway markers by immunohistochemistry (primary TNBC tumors; within 24 h after treatment): enhanced pPERK, CHOP (protein product of DDIT3 gene) and peiF2a staining

Source: patent US12275685B2, “Oligo-benzamide analogs and their use in cancer treatment” (Board of Regents, The University of Texas System, priority 2018, dated 2025)
